Reference: patent US7425579B2, “Methods for inhibiting activity of polyamine transporters” (Universite Laval, priority 1998, dated 2008)

Legend:
CHO-TOR cells = assay: Potentiation of DFMO-induced cytostasis in CHO-TOR cells; type: cell-based, Chinese hamster; settings: 2 mM DFMO; 4 d
Method: FIGS. 9A and 9B are graphs showing that potentiation of DFMO-induced cytostasis by a compound used in a method according to a preferred embodiment of the invention requires a functional polyamine transport system. In particular, CHO-TOR cells (A) and their polyamine transport-deficient mutant subline CHO-MG (B) were grown in medium containing 1 mM aminoguanidine and the indicated concentration of spermidine, in the presence of 2 mM DFMO (●), BNSD-X (□), DFMO+BNSD-X (▪), or vehicle only (∘). Cells were harvested after 4 d for determination of total DNA/well. Data are presented as the mean±SD for triplicate cultures from one representative experiment;
To determine the ability of polyamine transport antagonists to potentiate DFMO-induced inhibition of cell proliferation in the presence of exogenous polyamines, cells were grown for the indicated period in growth medium supplemented with 1 mM aminoguanidine, and either DFMO (1 to 5 mM), the indicated transport inhibitor (50 or 100 μM), or the combination thereof, as well as increasing concentrations of spermidine (0.1 to 300 μM). Fresh medium was added every other day, and cell mass was determined at various time points during the period of exponential growth, or at the end of the experimental period. […]

[1] = test system: polyamine transport system; assay: Time course of [3H]spermidine accumulation in ZR-75-1 cells; type: cell-based, human; settings: after 8 h
Method: (§1) In particular, exponentially growing T-47D (A) or ZR-75-1 cells (B and C) were transferred to serum-free medium containing 5 μM [^3H]spermidine, and either 200 μM cycloheximide (CHX) (●), 100 μM BNSD-X (□), CHX plus BNSD-X (▪), or vehicle only (∘). Cells were incubated for the time intervals indicated prior to harvesting for detrmination of total intracellular radioactivity. ZR-75-1 cells were either pre-incubated for 48 h in the absence (panel B) or presence of 1 mM DFMO (panel C) prior to the experiment shown; DFMO was also included during the labeling period in the appropriate group. Data are presented as the mean±SD for triplicate cultures from one representative experiment;
The effect of BNSD-X on the time course of [^3H]spermidine accumulation was determined in ZR-75-1 and T-47D cells pre-incubated in the presence or absence of DFMO before addition of radioactive substrate and the transport inhibitor. Subgroups of cell cultures were also treated with cycloheximide in order to prevent the polyamine-dependent induction of ODC antizyme, which rapidly down-regulates polyamine transport activity through an unknown mechanism (Lessard et al. (1995) J. Biol. Chem. 270, 1685-1694; Coffino et al. (2001) Nat Rev Mol Cell Biol. 2:188-194). […]

[2] = test system: Jurkat, LAN-1, L1210, T-47D, ZR-75-1 and MDA-MB-231 cells; assay: Effect of BNSD-X on cell proliferation in various mammalian cell lines; type: cell-based; settings: 1 mM aminoguanidine; 4 to 11 d
Method: FIGS. 3A and 3B are graphs showing the effect compounds used in a method according preferred embodiment of the present invention, on cell proliferation. In particular, they relate to the effect of selected BSD and BNSD derivatives on T-47D cell proliferation. Cells were incubated for 9 d with the indicated concentrations of BSD-2 (∘), BNSD-4 (●), BSD-4 (□), BNSD-6 (▪), BSD-10 (Δ), BSD-4-ene (▴) and BSD-4-yne (▾) in medium containing 1 mM aminoguanidine, and total DNA content per culture was then determined. B, Effect of BNSD-X (N,N,N′,N′-tetrakis-(3-aminopropyl)-p-diaminoxylene) on cell proliferation in various mammalian cell lines. Jurkat (∘), LAN-1 (●), L1210 (□), T-47D (▪), ZR-75-1 (Δ) and MDA-MB-231 (▴) cells were grown to near confluency or saturation (for 4 to 11 d according to the cell line considered) with the indicated concentrations of BNSD-X in the presence of 1 mM aminoguanidine, and total DNA content per culture was then determined. Data are given as the mean±SD for triplicate cultures from one out of at least two identical experiments;
The effect of transport inhibitors on cell proliferation was evaluated by determination of cell number (L1210, Jurkat) using electronic sizing with a Model ZM Coulter counter (Coulter Electronics, Hialeah, Fla.), or DNA content per culture (for all other cell lines) with the 3,5-diaminobenzoic acid assay. […]

[3] = test system: polyamine transport system; assay: Time course of [3H]spermidine accumulation in T-47D cells; type: cell-based, human
Method: as §1
The effect of BNSD-X on the time course of [^3H]spermidine accumulation was determined in ZR-75-1 and T-47D cells pre-incubated in the presence or absence of DFMO before addition of radioactive substrate and the transport inhibitor. Subgroups of cell cultures were also treated with cycloheximide in order to prevent the polyamine-dependent induction of ODC antizyme, which rapidly down-regulates polyamine transport activity through an unknown mechanism (Lessard et al. (1995) J. Biol. Chem. 270, 1685-1694; Coffino et al. (2001) Nat Rev Mol Cell Biol. 2:188-194). As expected, [^3H]spermidine accumulation reached a plateau after approximately 2 h in both […], but increased in an approximately linear fashion for the first 6-8 h in the presence of cycloheximide, consistent with relief from feedback repression of polyamine transport as a result of inhibition of antizyme synthesis. At a BNSD-X:spermidine ratio of 20:1, the triamine dimer decreased net [^3H]spermidine uptake in T-47D cells after 8 h by 92% and 80% in the presence or absence of cycloheximide, respectively (FIG. 7A), whereas it inhibited spermidine accumulation by 90 and 65%, respectively, under the same conditions in ZR-75-1 cells (FIG. 7B). […]

## NCCCN(CCCN)Cc1ccc(CN(CCCN)CCCN)cc1 [28a, N,N,N′,N′-tetrakis-(3-aminopropyl)-p-diaminoxylene]
CHO-TOR cells
  potentiation of DFMO-induced cytostasis in the absence of exogenous spermidine, CHO-TOR: observed in the parental cell line
[1]; BNSD-X:spermidine 20:1
  inhibition of spermidine accumulation, without cycloheximide: 65%
[1]; BNSD-X:spermidine 20:1, 200 μM cycloheximide
  inhibition of spermidine accumulation, with cycloheximide: 90%
[2]
  effect on proliferation of a panel of mammalian cell lines: remarkably inert
[3]; 20-fold excess of BNSD-X, T-47D and ZR-75-1
  residual rate of spermidine influx, of the maximal rate of spermidine accumulation: 8-10%
[3]; T-47D, after 8 h, BNSD-X:spermidine 20:1
  decrease of net [3H]spermidine uptake, without cycloheximide: 80%
[3]; T-47D, after 8 h, BNSD-X:spermidine 20:1 (100 μM:5 μM), 200 μM cycloheximide
  decrease of net [3H]spermidine uptake, with cycloheximide: 92%
